The values that follow come from patent US20070054927A1, “Fungicidal mixtures” (BASF AKTIENGESELLSCHAFT, priority 2003, published 2007).

For this assay, the system named is Plasmopara viticola. The experiment in a line: activity against peronospora of grapevines caused by Plasmopara viticola, protective application. To be noted: individual active compound, potted vines Müller-Thurgau, untreated control 71% infection. It counts as in vivo. The procedure: The active compounds, separately or jointly, were prepared as a stock solution comprising 0.25% by weight of active compound in acetone or DMSO. 1% by weight of the emulsifier Uniperol® EL (wetting agent having emulsifying and dispersant action based on ethoxylated alkylphenols) was added to this solution, and the mixture was diluted with water to the desired concentration.
Use example—activity against peronospora of gravevines caused by Plasmopara viticola, protective application
Leaves of potted vines of the cultivar “Müller-Thurgau” were sprayed to runoff point with an aqueous suspension having the concentration of active compound stated below. The next day, the undersides of the leaves were inoculated with an aqueous zoospore suspension of Plasmopara viticola. The grapevines were then initially placed in a water-vapor-saturated chamber at 24° C. for 48 hours and then in a greenhouse at 20-30° C. for 5 days. After this period of time, the plants were again placed in a humid chamber for 16 hours to promote sporangiophore eruption. The extent of the development of the disease on the undersides of the leaves was then determined visually.
The visually determined percentages of infected leaf areas were converted into efficacies in % of the untreated control:
The efficacy (E) is calculated as follows using Abbot's formula: E=(1−α/β)·100 • α corresponds to the fungicidal infection of the treated plants in % and • β corresponds to the fungicidal infection of the untreated (control) plants in %
An efficacy of 0 means that the infection level of the treated plants corresponds to that of the untreated control plants; an efficacy of 100 means that the treated plants were not infected.
The expected efficacies of mixtures of active compounds were determined using Colby's formula (Colby, S. R. “Calculating synergistic and antagonistic responses of herbicide combinations”, Weeds, 15, 20-22, 1967) and compared with the observed efficacies.
Colby's formula: E=x+y−x·y/100 • E expected efficacy, expressed in % of the untreated control, when using the mixture of the active compounds A and B at the concentrations a and b • x efficacy, expressed in % of the untreated control, when using the active compound A at the concentration a • y efficacy, expressed in % of the untreated control, when using the active compound B at the concentration b

For the compound `CC1CCN(c2c(-c3c(F)cccc3Cl)c(Cl)nc3ncnn23)CC1` [comparative compound A], the “Efficacy in % of the untreated control” value reads like this: (4 ppm in the spray liquor) 0%; (16 ppm in the spray liquor) 15%.

For `CC1(C)CCC(Cc2ccc(Cl)cc2)C1(O)Cn1cncn1` (centres unmarked) [II (metconazole), 5-(4-chlorobenzyl)-2,2-dimethyl-1-[1,2,4]triazol-1-ylmethylcyclopentanol], the “Efficacy in % of the untreated control” value was determined as 1% (4 ppm in the spray liquor) and 1% (16 ppm in the spray liquor).

`C[C@H](Nc1c(-c2c(F)cc(F)cc2F)c(Cl)nc2ncnn12)C(F)(F)F` [comparative compound B]: the “Efficacy in % of the untreated control” value is reported as 15% (4 ppm in the spray liquor) and 29% (16 ppm in the spray liquor).

Regarding `CC1CCN(c2c(-c3c(F)cc(F)cc3F)c(Cl)nc3ncnn23)CC1` [I, 5-chloro-7-(4-methylpiperidin-1-yl)-6-(2,4,6-trifluorophenyl)-[1,2,4]triazolo[1,5-a]pyrimidine], the “Efficacy in % of the untreated control” value by setting is: (4 ppm in the spray liquor) 1%; (16 ppm in the spray liquor) 44%.
